In article PMC8835363, “Arachidin-1, a Prenylated Stilbenoid from Peanut, Induces Apoptosis in Triple-Negative Breast Cancer Cells” (International Journal of Molecular Sciences, 2022):

Tests used:
[1] = tested on: human leukemia HL-60 cell line; parameters: method as in PMID 21067217; settings: 72 h treatment; cited from earlier work
MDA-MB-436 cells = test: RealTime-Glo MT cell viability (cytotoxicity) assay; type: cell-based, human; settings: for IC50: Homo sapiens
Procedure: (§1) The cytotoxicity of RES, A-1, and A-3 was measured using the RealTime-Glo^TM MT Cell Viability Assay (Promega, Madison, WI, USA). The cells (10,000 cells/well) were seeded into 96-well plates. […] Cells with 0.1% DMSO (ATCC; Manassas, VA, USA) were included as a control. Luminescence was measured every 12 h for 72 total hours in a Cytation^TM 5 (BioTek, Winooski, VT, USA) plate reader. All experiments were performed in triplicates.

MDA-MB-231 cells = test: as above; type: cell-based, human; settings: for IC50: Homo sapiens
Procedure: as §1

[2] = tested on: caspase-8, 9, PARP, and survivin proteins in MDA-MB-436 cells; test: Western blot of caspase-8, caspase-9, PARP and survivin; type: cell-based, human; settings: 0.1 and 1 µM, 24 h
Procedure: (§2) MDA-MB-231 and MDA-MB-436 cells (10^7 and 5 × 10^6 cells/3 mL medium, respectively) were seeded in a 6-well cell culture plate. After 24 h, the cells were treated with A-1 (0.1 µM and 1 µM) for 24 h. Cells treated with 0.01% DMSO (ATCC; Manassas, VA, USA) were included as a control. Protein extracts were prepared using RIPA Lysis and Extraction Buffer plus Halt™ Protease Inhibitor Cocktail (Thermo Fisher Scientific; Waltham, MA, USA). The protein concentration was measured using the Bradford assay (Thermo Fisher Scientific; Waltham, MA, USA). Protein extracts (60 µg) with 5 µL of 2X Novex™ Tris-Glycine SDS Sample Buffer (Thermo Fisher Scientific; Waltham, MA, USA) and 1% dithiothreitol (DTT; Thermo Fisher Scientific; Waltham, MA, USA) were denatured and separated by electrophoresis using SDS-PAGE in 10% Tris-Glycine pre-cast gel (Novex™ WedgeWell™, Thermo Fisher Scientific; Waltham, MA, USA). The gel was run in 1X Novex™ Tris-Glycine SDS running buffer (Thermo Fisher Scientific; Waltham, MA, USA) at a constant 125 voltage for 90 min. The proteins were transferred into Trans-Blot Turbo Mini 0.2 µm PVDF membranes (Bio-Rad Laboratories; Hercules, CA, USA) using the Trans Blot Turbo System (Bio-Rad Laboratories; Hercules, CA, USA) at 1.3 amp and up to 25 volts for 7 min. After the membranes dried completely, they were incubated in 1X Tris Buffered Saline (TBS; Bio-Rad; Hercules, CA, USA) for 5 min at room temperature. Then, the membranes were blocked with 5% non-fat dry milk in 1X TBS containing 1% Tween 20 (TBST; Bio-Rad; Hercules, CA, USA) for 1 h at room temperature. The membranes were incubated with specific primary antibodies at 4 °C overnight. The primary antibodies and dilutions included rabbit anti-caspase-8 (D35G2) mAb (1:500; Cell Signaling Technology; Danvers, MA, USA), rabbit anti-PARP mAb (1:500; Cell Signaling Technology; Danvers, MA, USA), rabbit anti-human survivin polyclonal antibody (0.5 µg/mL; R&D Systems; Minneapolis, MN, USA), mouse anti-human caspase-9 mAb (1 µg/mL; R&D Systems; Minneapolis, MN, USA), mouse anti-vinculin antibody (2 µg/mL; R&D Systems; Minneapolis, MN, USA), and mouse anti-human GAPDH antibody (0.05 µg/mL; R&D Systems; Minneapolis, MN, USA). Afterwards, the membranes were incubated with HRP-conjugated goat anti-rabbit IgG secondary antibody (1:2000; Cell Signaling Technology; Danvers, MA, USA) and HRP-conjugated AffiniPure goat anti-mouse IgG secondary antibody (1:50,000; Jackson Immunoresearch Laboratories; West Grove, PA, USA) for 1 h at room temperature. The membranes were washed with 1X TBST and then incubated with SuperSignal™ West Pico PLUS Chemiluminescent Substrate (Thermo Fisher Scientific; Waltham, MA, USA). The membranes were scanned and analyzed using the Li-COR Odyssey® Fc Imaging System (LI-COR Biosciences; Lincoln, NE, USA).

[3] = tested on: caspase-8, 9, PARP, and survivin proteins in MDA-MB-231 cells; test: as above; type: cell-based, human; settings: 0.1 and 1 µM, 24 h
Procedure: as §2

[4] = tested on: UDP-glucuronosyltransferases; settings: in vitro metabolism; cited from earlier work
MCF-10A cells = test: RealTime-Glo MT cell viability (cytotoxicity) assay; type: cell-based, human; settings: 1 µM, 24, 48, 72 h
Procedure: The cytotoxicity of RES, A-1, and A-3 was measured using the RealTime-Glo^TM MT Cell Viability Assay (Promega, Madison, WI, USA). The cells (10,000 cells/well) were seeded into 96-well plates. After 24 h, they were treated with various 10-fold dilutions of RES, A-1, and A-3 with concentrations ranging from 0.1 µM to 1000 µM. Cells with 0.1% DMSO (ATCC; Manassas, VA, USA) were included as a control. Luminescence was measured every 12 h for 72 total hours in a Cytation^TM 5 (BioTek, Winooski, VT, USA) plate reader. All experiments were performed in triplicates.

Question: For `CC(C)/C=C/c1c(O)cc(/C=C/c2ccc(O)c(O)c2)cc1O` [A-1, arachidin-1], which IC50 [1] is on record?
Answer: 4.2 µM

Question: What about the IC50 (MDA-MB-436 cells; MDA-MB-436, 24 h, MDA-MB-436, 24 h) of the same molecule?
Answer: 12000 nM

Question: What about the IC50 (MDA-MB-436 cells; MDA-MB-436, 24 h, MDA-MB-436, 24 h, in Figure 2 panels) of the same molecule?
Answer: 1620 nM

Question: What about the IC50 (MDA-MB-436 cells; MDA-MB-436, 48 h, MDA-MB-436, 48 h) of the same molecule?
Answer: 6200 nM

Question: What about the IC50 (MDA-MB-436 cells; MDA-MB-436, 48 h, MDA-MB-436, 48 h, in Figure 2 panels) of the same molecule?
Answer: 2740 nM

Question: What about the IC50 (MDA-MB-436 cells; MDA-MB-436, 72 h, MDA-MB-436, 72 h) of the same molecule?
Answer: 2090 nM

Question: And the IC50 (MDA-MB-436 cells; MDA-MB-436, 72 h, MDA-MB-436, 72 h, in Figure 2 panels)?
Answer: 2090 nM

Question: What about the IC50 (MDA-MB-436 cells; MDA-MB-436, MDA-MB-436, all treatment time points) of the same molecule?
Answer: ~2000 nM

Question: What about the “antiproliferative effect (cell viability vs control)” value (MDA-MB-436 cells; MDA-MB-436, 1 µM, 24, 48, 72 h) of the same molecule?
Answer: cell proliferation reductions

Question: And the “growth inhibition at low concentrations” value (MDA-MB-436 cells; MDA-MB-436, 0.01-10 µM, 72 h)?
Answer: higher inhibitory growth effects at lower micromolar concentrations when compared to RES

Question: And the “fold lower IC50 of A-1 than A-3” value (MDA-MB-436 cells; MDA-MB-436, 24 h)?
Answer: nine-fold

Question: What about the “fold lower IC50 of A-1 than RES” value (MDA-MB-436 cells; MDA-MB-436, 24 h) of the same molecule?
Answer: eight-fold

Question: And the IC50 (MDA-MB-231 cells; MDA-MB-231, 24 h, MDA-MB-231, 24 h, in Figure 2 panels)?
Answer: 1840 nM

Question: What about the IC50 (MDA-MB-231 cells; MDA-MB-231, 24 h, MDA-MB-231, 24 h of treatment) of the same molecule?
Answer: 2680 nM

Question: And the IC50 (MDA-MB-231 cells; MDA-MB-231, 48 h, MDA-MB-231, 48 h, in Figure 2 panels)?
Answer: 1420 nM

Question: And the IC50 (MDA-MB-231 cells; MDA-MB-231, 48 h, MDA-MB-231, 48 h of treatment)?
Answer: 7820 nM

Question: What about the IC50 (MDA-MB-231 cells; MDA-MB-231, 72 h, MDA-MB-231, 72 h, in Figure 2 panels) of the same molecule?
Answer: 2510 nM

Question: What about the IC50 (MDA-MB-231 cells; MDA-MB-231, 72 h, MDA-MB-231, 72 h of treatment) of the same molecule?
Answer: 2510 nM

Question: What about the IC50 (MDA-MB-231 cells; MDA-MB-231, MDA-MB-231, all treatment time points) of the same molecule?
Answer: ~2000 nM

Question: And the “antiproliferative effect (cell viability vs control)” value (MDA-MB-231 cells; MDA-MB-231, 1 µM, 24, 48, 72 h)?
Answer: cell proliferation reductions

Question: And the “growth inhibition at low concentrations” value (MDA-MB-231 cells; MDA-MB-231, 0.01-10 µM, 72 h)?
Answer: higher inhibitory growth effects at lower micromolar concentrations when compared to RES

Question: What about the “fold lower IC50 of A-1 than RES” value (MDA-MB-231 cells; MDA-MB-231, 24 h) of the same molecule?
Answer: six-fold

Question: And the “cleaved PARP level” value [2]?
Answer: significantly increased

Question: And the “cleaved caspase-9 level” value [2]?
Answer: significantly increased

Question: And the “full-length caspase-8 level” value [2]?
Answer: no significant change

Question: What about the survivin expression [2] of the same molecule?
Answer: downregulated

Question: And the “cleaved PARP level” value [3]?
Answer: only slightly increased and not statistically significant

Question: And the “cleaved caspase-9 level” value [3]?
Answer: only significantly increased in A-1 1 µM

Question: And the “full-length PARP protein level” value [3]?
Answer: significantly decreased levels

Question: And the “full-length caspase-8 level” value [3]?
Answer: no significant change

Question: And the survivin expression [3]?
Answer: downregulated

Question: What about the “glucuronidated products compared to non-prenylated analogs piceatannol and RES” value [4] of the same molecule?
Answer: lower glucuronidated products

Question: And the “cytotoxicity in non-cancerous epithelial cells” value (MCF-10A cells)?
Answer: did not show any statistically significant cytotoxicity
